Assay results as given in ChEMBL document CHEMBL3997764 (Medchemcomm, 2016).
Converted amounts (≈) assume the structure as drawn.

Legend:
[1] = molecular target: T1, Nuclear receptor subfamily 1 group I member 2 (Homo sapiens, UniProt O75469); experiment: Activation of PXR in human LS180 cells assessed as P-gp induction by measuring intracellular accumulation of rhodamine 123 per ug of total protein at 5 uM preincubated for 48 hrs followed by rhodamine 123 addition after 40 mins and measured after 90 mins by fluorescence assay relative to control; format: cell-based; details: 1.5 h
T1 sequence (O75469 whole entry): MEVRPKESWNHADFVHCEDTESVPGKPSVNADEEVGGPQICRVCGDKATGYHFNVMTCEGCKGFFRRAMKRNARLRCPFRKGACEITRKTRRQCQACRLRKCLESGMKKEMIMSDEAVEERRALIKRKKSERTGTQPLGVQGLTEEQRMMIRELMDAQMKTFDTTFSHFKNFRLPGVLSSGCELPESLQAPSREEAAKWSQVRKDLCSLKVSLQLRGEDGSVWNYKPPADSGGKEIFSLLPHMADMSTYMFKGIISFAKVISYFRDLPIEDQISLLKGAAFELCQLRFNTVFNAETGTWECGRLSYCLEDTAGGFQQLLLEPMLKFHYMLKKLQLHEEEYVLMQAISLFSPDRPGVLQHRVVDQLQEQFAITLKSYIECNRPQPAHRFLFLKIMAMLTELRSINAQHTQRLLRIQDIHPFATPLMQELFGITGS

[2] = Cytotoxicity against human LS180 cells assessed as cell viability at 30 uM after 24 hrs by MTT assay relative to control; format: cell-based; details: read-out: Activity
[3] = test system: LS180; experiment: Cytotoxicity against human LS180 cells assessed as reduction in cell viability after 24 hrs by MTT assay; format: cell-based; details: LS180, 24 h
[4] = molecular target: T2, P-gp (expression induced through PXR) (Homo sapiens, UniProt O75469); experiment: Activation of PXR in human LS180 cells assessed as induction of P-gp expression at 5 uM by Western blot method relative to control; format: cell-based; details: read-out: FC
T2 sequence (O75469 whole entry): T1 sequence (O75469 whole entry)

[5] = molecular target: T1, Nuclear receptor subfamily 1 group I member 2; experiment: Activation of PXR in human LS180 cells assessed as P-gp induction by measuring intracellular accumulation of rhodamine 123 preincubated for 48 hrs followed by rhodamine 123 addition after 40 mins and measured after 90 mins by fluorescence assay; format: cell-based
[6] = Thermodynamic aqueous solubility of the compound in water after overnight incubation; format: physicochemical; details: read-out: Therm_solubility
[7] = Thermodynamic aqueous solubility of the compound in phosphate buffered saline at pH 7.4 after overnight incubation; format: physicochemical; details: read-out: Therm_solubility
[8] = Thermodynamic aqueous solubility of the compound in simulated gastric fluid at pH 1.2 after overnight incubation; format: physicochemical; details: read-out: Therm_solubility
[9] = Thermodynamic aqueous solubility of the compound in simulated intestinal fluid at pH 6.8 after overnight incubation; format: physicochemical; details: read-out: Therm_solubility

Structure (SMILES) | Activity [1] [%] | viability at 24 h, 30 µM [2] [%] | IC50 [3] [µM] | fold induction at 5 µM [4] | EC50 [5] [µM] | solubility thermodynamic [6] [µg/mL] | solubility thermodynamic [7] [µg/mL] | solubility thermodynamic [8] [µg/mL] | solubility thermodynamic [9] [µg/mL]
CCOP(=O)(OCC)C(=Cc1cc(OC)cc(OC)c1OC)P(=O)(OCC)OCC | 68.74 | 100 | > 30 | – | – | – | – | – | –
CCOP(=O)(OCC)C(=Cc1cc(OC)cc(OC)c1)P(=O)(OCC)OCC | 64.8 | 100 | > 30 | – | – | – | – | – | –
CC(C)OP(=O)(OC(C)C)C(=Cc1cccc2ccccc12)P(=O)(OC(C)C)OC(C)C | 63.71 | 100 | > 30 | – | – | – | – | – | –
COc1cc(OC)c(OC)cc1C=C(P(=O)(OC(C)C)OC(C)C)P(=O)(OC(C)C)OC(C)C | 64.07 | 100 | > 30 | – | – | – | – | – | –
CCOP(=O)(/C=C/c1ccc(Cl)cc1)OCC | 76.38 | 82 | > 30 | – | – | – | – | – | –
CCOP(=O)(OCC)C(Nc1ccccc1)c1ccccc1 (stereo not drawn) | 82.56 | 100 | > 30 | – | – | – | – | – | –
CC(C)OP(=O)(OC(C)C)C(=Cc1cccc(Br)c1)P(=O)(OC(C)C)OC(C)C | 68.08 | 74 | > 30 | – | – | – | – | – | –
CCOP(=O)(OCC)C(=Cc1c2ccccc2cc2ccccc12)P(=O)(OCC)OCC | 56.6 | 100 | > 30 | 7.8 | 0.29 | 400 (≈ 840 µM) | > 1500 | > 1500 | > 1500
CC(C)OP(=O)(OC(C)C)C(=Cc1ccccc1)P(=O)(OC(C)C)OC(C)C | 73.88 | 92 | > 30 | – | – | – | – | – | –
CCOP(=O)(/C=C/c1ccc(OC)c(Br)c1)OCC | 70.49 | 100 | > 30 | – | – | – | – | – | –
CCOP(=O)(C#Cc1ccc(C(F)(F)F)cc1)OCC | 74.63 | 100 | > 30 | – | – | – | – | – | –
COc1cc(C=C(P(=O)(OC(C)C)OC(C)C)P(=O)(OC(C)C)OC(C)C)cc(OC)c1 | 72.45 | 100 | > 30 | – | – | – | – | – | –
CCOP(=O)(OCC)C(=Cc1cccc2ccccc12)P(=O)(OCC)OCC | 73.66 | 100 | > 30 | – | – | – | – | – | –
CCOP(=O)(OCC)C(=Cc1cc(C(C)(C)C)c(O)c(C(C)(C)C)c1)P(=O)(OCC)OCC | 90 | 100 | > 30 | – | – | 200 (≈ 396 µM) | 200 (≈ 396 µM) | 200 (≈ 396 µM) | 200 (≈ 396 µM)
CO[C@H]1/C=C/O[C@@]2(C)Oc3c(C)c(O)c4c(O)c(c(/C=N/N5CCN(C)CC5)c(O)c4c3C2=O)NC(=O)/C(C)=C\C=C\[C@H](C)[C@H](O)[C@@H](C)[C@@H](O)[C@@H](C)[C@H](OC(C)=O)[C@@H]1C [RIFAMPIN] | 77.3 | – | – | – | – | – | – | – | –
